# Assay results as given in PubChem BioAssay (NCI).
# Where “and” joins values, the source holds several entries; their conditions need not be identical. Equal values may be shown once.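 Tested at 5 concentrations; 48 h exposure; 96-well plates; endpoints linearly interpolated, else capped at highest concentration. GI50 is the concentration that inhibits growth by half. TGI is the concentration that stops growth completely.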
# Tests used:
# Experiment in all cases: DTP human tumour cell line panel, 48 h
# SK-MEL-5 melanoma = tested on: SK-MEL-5 melanoma
# M14 melanoma = tested on: M14 melanoma
# UACC-62 melanoma = tested on: UACC-62 melanoma
# U251 CNS = tested on: U251 CNS
# CCRF-CEM leukemia = tested on: CCRF-CEM leukemia
# NCI-H460 lung = tested on: NCI-H460 lung
# HT29 colon = tested on: HT29 colon
# RXF 393 renal = tested on: RXF 393 renal
# HS 578T breast = tested on: HS 578T breast
# MDA-MB-231 breast = tested on: MDA-MB-231 breast
smiles,measurement,setting,value
COc1cc2c3c(c1OC)C(=O)C=C3N(S(=O)(=O)c1ccc(C)cc1)CC2,TGI,SK-MEL-5 melanoma,> 100 µM
same,TGI,M14 melanoma,> 100 µM
same,TGI,UACC-62 melanoma,> 100 µM
same,TGI,U251 CNS,> 100 µM
same,TGI,CCRF-CEM leukemia,> 100 µM
same,TGI,NCI-H460 lung,> 100 µM
same,TGI,HT29 colon,> 100 µM
CCCCCCCCCCOC(=O)c1cc[n+](C)cc1,TGI,SK-MEL-5 melanoma,33.6 µM
same,TGI,M14 melanoma,32.2 µM
same,TGI,UACC-62 melanoma,34 µM
same,TGI,U251 CNS,29.1 µM
same,TGI,CCRF-CEM leukemia,37.7 µM
same,TGI,NCI-H460 lung,38.8 µM
same,TGI,HT29 colon,31.1 µM
same,TGI,RXF 393 renal,34.3 µM
O=C(NC(=O)c1cn(CCN2CCN(C(=O)NCCCCCCNC(=O)N3CCN(CCn4cc(C(=O)NC(=O)OCc5ccccc5)c(=O)[nH]c4=O)CC3)CC2)c(=O)[nH]c1=O)OCc1ccccc1,TGI,SK-MEL-5 melanoma,> 100 µM
same,TGI,M14 melanoma,> 100 µM
same,TGI,UACC-62 melanoma,> 100 µM
same,TGI,U251 CNS,> 100 µM
same,TGI,CCRF-CEM leukemia,> 100 µM
same,TGI,NCI-H460 lung,> 100 µM
same,TGI,HT29 colon,> 100 µM
same,TGI,RXF 393 renal,> 100 µM
CCN(CC)c1ccc2nc3ccc(N=Nc4ccc(O)cc4)cc3[n+](-c3ccccc3)c2c1,GI50,SK-MEL-5 melanoma,2.92 µM
same,TGI,SK-MEL-5 melanoma,12.2 µM
same,GI50,M14 melanoma,2.29 µM
same,TGI,M14 melanoma,4.79 µM
same,GI50,HS 578T breast,1.88 µM
same,TGI,HS 578T breast,> 100 µM
same,GI50,UACC-62 melanoma,4.14 µM
same,TGI,UACC-62 melanoma,23.3 µM
same,GI50,U251 CNS,7.81 µM
same,TGI,U251 CNS,> 100 µM
same,GI50,NCI-H460 lung,3.41 µM
same,TGI,NCI-H460 lung,> 100 µM
same,GI50,HT29 colon,3.15 µM
same,TGI,HT29 colon,> 100 µM
same,GI50,RXF 393 renal,10.4 µM
same,TGI,RXF 393 renal,24.8 µM
COc1ccc(-c2n[nH]nc2-c2cc(OC)c3c(c2)OCO3)cc1,GI50,SK-MEL-5 melanoma,0.0267 µM
same,TGI,SK-MEL-5 melanoma,0.899 µM
same,GI50,M14 melanoma,0.014 µM
same,TGI,M14 melanoma,10.5 µM
same,GI50,HS 578T breast,0.0219 µM
same,TGI,HS 578T breast,3.72 µM
same,GI50,UACC-62 melanoma,< 0.01 µM
same,TGI,UACC-62 melanoma,49.2 µM
same,GI50,U251 CNS,0.0359 µM
same,TGI,U251 CNS,15.6 µM
same,GI50,CCRF-CEM leukemia,0.0264 µM
same,TGI,CCRF-CEM leukemia,14.2 µM
same,GI50,NCI-H460 lung,0.0143 µM
same,TGI,NCI-H460 lung,13.2 µM
same,GI50,HT29 colon,0.0365 µM
same,TGI,HT29 colon,4.29 µM
same,GI50,MDA-MB-231 breast,0.0409 µM
same,TGI,MDA-MB-231 breast,0.437 µM
CC1(C)C(=O)C(=Cc2ccco2)C1=O,TGI,SK-MEL-5 melanoma,> 100 µM
same,TGI,M14 melanoma,> 100 µM
same,TGI,UACC-62 melanoma,> 100 µM
same,TGI,U251 CNS,> 100 µM
same,TGI,CCRF-CEM leukemia,> 100 µM
same,TGI,NCI-H460 lung,> 100 µM
same,TGI,HT29 colon,> 100 µM
Cc1ccccc1N=Nc1c(-c2ccccc2)nn(C(=O)CC(=O)Nc2cccc(Cl)c2)c1-c1ccccc1,TGI,SK-MEL-5 melanoma,24.9 µM
same,TGI,M14 melanoma,> 31.6 µM
same,TGI,UACC-62 melanoma,> 31.6 µM
same,TGI,U251 CNS,19.6 µM
same,TGI,CCRF-CEM leukemia,25.4 µM
same,TGI,NCI-H460 lung,> 31.6 µM
same,TGI,HT29 colon,23.4 µM
same,TGI,RXF 393 renal,28.4 µM
COc1ccc2c(c1)CCc1c(CO)c(COC(=O)NC(C)C)n(C)c1-2,TGI,SK-MEL-5 melanoma,15.1 µM
same,TGI,M14 melanoma,33.8 µM
same,TGI,UACC-62 melanoma,22.7 µM
same,TGI,U251 CNS,35.8 µM
same,TGI,CCRF-CEM leukemia,12.5 µM
same,TGI,NCI-H460 lung,26.5 µM
same,TGI,HT29 colon,13.5 µM
same,TGI,RXF 393 renal,38.7 µM
COC(=O)N/N=C(\C)C(CN(C)C)C(c1ccccc1)c1c(O)c2ccccc2oc1=O (stereo unspecified),TGI,SK-MEL-5 melanoma,> 100 µM
same,TGI,M14 melanoma,> 100 µM
same,TGI,UACC-62 melanoma,> 100 µM
same,TGI,U251 CNS,> 100 µM
same,TGI,CCRF-CEM leukemia,> 100 µM
same,TGI,HT29 colon,> 100 µM
same,TGI,RXF 393 renal,> 100 µM
COC(=O)/C(=C/c1ccc(OC)cc1)C(C(=O)O)=C1CCCCC1,TGI,SK-MEL-5 melanoma,> 100 µM
same,TGI,M14 melanoma,> 100 µM
same,TGI,UACC-62 melanoma,> 100 µM
same,TGI,U251 CNS,> 100 µM
same,TGI,CCRF-CEM leukemia,> 100 µM
same,TGI,NCI-H460 lung,> 100 µM
same,TGI,HT29 colon,> 100 µM
same,TGI,RXF 393 renal,> 100 µM
COc1ccc2c(c1)[n+](=O)c(C(=O)CC(=O)C(=O)Nc1cccc(C)c1C)c(C)n2[O-],TGI,SK-MEL-5 melanoma,> 100 µM
same,TGI,M14 melanoma,> 100 µM
same,TGI,UACC-62 melanoma,> 100 µM
same,TGI,U251 CNS,> 100 µM
same,TGI,CCRF-CEM leukemia,> 100 µM
same,TGI,NCI-H460 lung,> 100 µM
same,TGI,HT29 colon,> 100 µM
same,TGI,RXF 393 renal,> 100 µM
Nc1ccccc1C(=O)NC(=O)Nc1ccc(Oc2ncc(Br)cn2)c(Cl)c1,GI50,SK-MEL-5 melanoma,0.00688 µM
same,TGI,SK-MEL-5 melanoma,1.71 µM
same,TGI,M14 melanoma,2.08 µM
same,GI50,UACC-62 melanoma,0.00797 µM
same,TGI,UACC-62 melanoma,4.33 µM
same,TGI,U251 CNS,12.4 µM
same,GI50,CCRF-CEM leukemia,0.0249 µM and < 0.0246 µM
same,TGI,CCRF-CEM leukemia,1.9 µM
same,TGI,NCI-H460 lung,3.53 µM
same,TGI,HT29 colon,0.448 µM
same,TGI,RXF 393 renal,0.458 µM
same,TGI,MDA-MB-231 breast,2.76 µM
CC(=O)OC1C(O[C@H]2CC[C@]34O[C@]35CC[C@]3(C)C(C6(C)CC[C@@H](C(C)(C)O)O6)[C@@H](O)CC3(C)[C@@H]5CC(OC3OC(CO)C(O)C(O)C3O)C4C2(C)C)OCC(O)C1O (stereo partly specified),TGI,SK-MEL-5 melanoma,> 100 µM
same,TGI,M14 melanoma,> 100 µM
same,TGI,UACC-62 melanoma,> 100 µM
same,TGI,U251 CNS,> 100 µM
same,TGI,CCRF-CEM leukemia,> 31.6 µM
same,TGI,NCI-H460 lung,> 100 µM
same,TGI,HT29 colon,> 100 µM
same,TGI,RXF 393 renal,> 100 µM
COc1cccc2nc3c(C(=O)NCCN(C)C)cccc3nc12,TGI,SK-MEL-5 melanoma,36.8 µM
same,TGI,M14 melanoma,36.3 µM
same,TGI,UACC-62 melanoma,27 µM
same,TGI,U251 CNS,59.1 µM
same,TGI,CCRF-CEM leukemia,25.7 µM
same,TGI,NCI-H460 lung,21 µM
same,TGI,HT29 colon,32 µM
same,TGI,RXF 393 renal,26.7 µM
C=C(CO)CC(/C=C(\C)CC/C=C(\C)CCl)OC(C)=O (stereo unspecified),TGI,SK-MEL-5 melanoma,> 100 µM
same,TGI,M14 melanoma,> 100 µM
same,TGI,UACC-62 melanoma,> 100 µM
same,TGI,U251 CNS,> 100 µM
same,TGI,CCRF-CEM leukemia,> 100 µM
same,TGI,NCI-H460 lung,> 100 µM
same,TGI,HT29 colon,> 100 µM
same,TGI,RXF 393 renal,> 100 µM
O=c1[nH]c(=O)n(C2CC(O)C(CO)O2)cc1COCC(F)(F)F (stereo unspecified),TGI,SK-MEL-5 melanoma,> 100 µM
same,TGI,M14 melanoma,> 100 µM
same,TGI,UACC-62 melanoma,> 100 µM
same,TGI,U251 CNS,> 100 µM
same,TGI,CCRF-CEM leukemia,> 100 µM
same,TGI,NCI-H460 lung,> 100 µM
same,TGI,HT29 colon,> 100 µM
same,TGI,RXF 393 renal,> 100 µM
O=C([CH-]C(=O)c1ccccc1)c1ccccc1.O=C([CH-]C(=O)c1ccccc1)c1ccccc1.O=C([CH-]C(=O)c1ccccc1)c1ccccc1.[Cl-].[Zr+4],GI50,SK-MEL-5 melanoma,22.9 µM
same,TGI,SK-MEL-5 melanoma,60.6 µM
same,GI50,M14 melanoma,12.6 µM
same,TGI,M14 melanoma,39 µM
same,GI50,UACC-62 melanoma,20.3 µM
same,TGI,UACC-62 melanoma,91.2 µM
same,GI50,U251 CNS,12.1 µM
same,TGI,U251 CNS,> 100 µM
same,GI50,NCI-H460 lung,10.8 µM
same,TGI,NCI-H460 lung,53.8 µM
same,GI50,HT29 colon,29 µM
same,TGI,HT29 colon,> 100 µM
same,GI50,RXF 393 renal,15 µM
same,TGI,RXF 393 renal,71.9 µM
CCC[CH2][Sn]([CH2]CCC)([O]C(=O)c1cccc(F)c1F)[O]C(=O)c1cccc(F)c1F,GI50,SK-MEL-5 melanoma,1.52 µM
same,TGI,SK-MEL-5 melanoma,2.87 µM
same,GI50,M14 melanoma,1.4 µM
same,TGI,M14 melanoma,2.77 µM
same,GI50,UACC-62 melanoma,1.22 µM
same,TGI,UACC-62 melanoma,2.46 µM
same,GI50,U251 CNS,0.675 µM
same,TGI,U251 CNS,1.93 µM
same,GI50,NCI-H460 lung,1.7 µM
same,TGI,NCI-H460 lung,3.24 µM
same,GI50,HT29 colon,1.62 µM
same,TGI,HT29 colon,2.99 µM
same,GI50,RXF 393 renal,0.321 µM
same,TGI,RXF 393 renal,1.22 µM
COc1cc2nc(-c3cccc4cccnc34)nc(NC3CCN(Cc4ccccc4)CC3)c2cc1OC,GI50,SK-MEL-5 melanoma,1.66 µM
same,TGI,SK-MEL-5 melanoma,3.18 µM
same,GI50,M14 melanoma,1.52 µM
same,TGI,M14 melanoma,3.4 µM
same,GI50,HS 578T breast,2.07 µM
same,TGI,HS 578T breast,4.81 µM
same,GI50,UACC-62 melanoma,2 µM
same,TGI,UACC-62 melanoma,4.02 µM
same,GI50,U251 CNS,1.05 µM
same,TGI,U251 CNS,2.55 µM
same,GI50,CCRF-CEM leukemia,0.576 µM
same,TGI,CCRF-CEM leukemia,2.83 µM
same,GI50,NCI-H460 lung,0.351 µM
same,TGI,NCI-H460 lung,1.23 µM
same,GI50,HT29 colon,0.419 µM
same,TGI,HT29 colon,1.85 µM
same,GI50,MDA-MB-231 breast,1.36 µM
same,TGI,MDA-MB-231 breast,2.75 µM
c1ccc(C2CC(c3ccc4ccccc4c3)=Nc3ccccc3S2)cc1 (stereo unspecified),TGI,SK-MEL-5 melanoma,35.3 µM
same,TGI,M14 melanoma,31.2 µM
same,TGI,UACC-62 melanoma,35.2 µM
same,TGI,U251 CNS,31 µM
same,TGI,CCRF-CEM leukemia,99.7 µM
same,TGI,NCI-H460 lung,29.1 µM
same,TGI,HT29 colon,30.8 µM
same,TGI,RXF 393 renal,33.4 µM
